Reference: article PMC8001472, “Novel Selective IDO1 Inhibitors with Isoxazolo[5,4-d]pyrimidin-4(5H)-one Scaffold” (Pharmaceuticals, 2021)

Assays:
IDO1 = IDO1 (Homo sapiens, UniProt P14902); assay: hIDO1 inhibitory potency evaluation (fluorescence assay, NFK-derived fluorophore); assay type: biochemical; design: gene encoding human IDO1 residues 6-403 His-tagged at the N-terminus; His tag (N); made in house; host or cells: Escherichia coli NiCo21; conditions: for IC50: recombinant hIDO1, mean ± SD of at least two independent determinations, read-out: IDO1 IC50; for inhibition at 100 µM: 100 µM compound, n.a. = not active, read-out: IDO1 % of Inhibition @ 100 µM
Chain of IDO1 (P14902 6-403): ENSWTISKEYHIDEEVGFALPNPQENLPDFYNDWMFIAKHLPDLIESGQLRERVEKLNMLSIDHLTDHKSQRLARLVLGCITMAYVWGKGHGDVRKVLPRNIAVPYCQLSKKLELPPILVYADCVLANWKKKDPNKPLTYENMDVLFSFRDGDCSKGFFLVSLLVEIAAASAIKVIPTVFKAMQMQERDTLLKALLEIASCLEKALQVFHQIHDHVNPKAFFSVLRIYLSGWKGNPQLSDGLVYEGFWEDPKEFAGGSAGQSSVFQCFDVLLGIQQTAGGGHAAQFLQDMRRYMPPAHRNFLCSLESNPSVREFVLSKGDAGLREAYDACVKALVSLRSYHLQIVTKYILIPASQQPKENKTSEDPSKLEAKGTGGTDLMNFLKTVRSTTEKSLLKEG

hIDO2 = target: T1, hIDO2 (Homo sapiens, UniProt Q6ZQW0); assay: hIDO2 inhibitory potency evaluation (fluorescence assay); assay type: biochemical; conditions: for inhibition at 100 µM: 100 µM compound, n.a. = not active, read-out: IDO2 % of Inhibition @ 100 µM
T1 construct: purchased Vinci-Biochem
T1 sequence (Q6ZQW0 1-407): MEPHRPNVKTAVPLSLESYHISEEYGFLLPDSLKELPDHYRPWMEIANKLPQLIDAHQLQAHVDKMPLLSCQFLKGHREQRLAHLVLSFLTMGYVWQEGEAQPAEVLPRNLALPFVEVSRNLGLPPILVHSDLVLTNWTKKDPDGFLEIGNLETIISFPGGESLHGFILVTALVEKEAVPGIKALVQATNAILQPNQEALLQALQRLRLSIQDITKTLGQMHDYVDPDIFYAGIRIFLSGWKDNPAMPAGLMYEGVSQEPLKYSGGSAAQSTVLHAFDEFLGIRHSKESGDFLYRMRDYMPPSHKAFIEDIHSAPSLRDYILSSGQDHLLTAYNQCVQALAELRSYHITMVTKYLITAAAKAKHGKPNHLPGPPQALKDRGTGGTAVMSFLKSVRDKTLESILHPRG
Protocol: (§1) Additionally, to determine IDO1 selectivity, all final compounds were assayed for their inhibitory potencies towards hIDO2 and hTDO. For this purpose, two new protocols were developed based on the published fluorescence assay for hIDO1 [25]. Sodium ascorbate, methylene blue, and bovine catalase were used in the same concentrations as for hIDO1. 50 mM phosphate buffers with pH values of 7.5 and 7.0 were used for hIDO2 and hTDO, respectively, as has been already mentioned before. First, the activities of hIDO2 and hTDO were determined at four different concentrations. […] Additionally, the effect of DMSO concentration on enzyme activity was investigated. […] The optimal hIDO2 and hTDO assay concentrations of the substrate L-Trp were determined to be 4 mM and 500 μM, respectively.
Activity of the compounds on hIDO2 was determined according to the previously reported fluorescence protocol for hIDO1 [25] and reported absorbance protocols for hIDO2 [30, 36] with several modifications. Recombinant hIDO2 was purchased from Vinci-Biochem (Vinci-Biochem, Srl, Vinci, Italy), bovine catalase was purchased from Sigma-Aldrich (Sigma-Aldrich, St. Louis, MO, USA). Prior to the measurement of activity for compounds, the enzyme activity was determined and optimal assay enzyme concentration was selected. The amounts of reagents needed to perform the assay were optimized. Briefly, the reagents needed were dissolved in 50 mM potassium phosphate buffer (pH 7.5, 0.01%, v/v Tween 20), the reaction was performed in black 384-well microplates. After the addition of 1 μL of 100 mM sodium ascorbate neutralized with an equimolar amount of 1M NaOH, 1 μL of 100 μM methylene blue, 1 μL of 1 mg/mL bovine catalase, 0.5 μL of DMSO (negative control) or solution of a compound in DMSO, 5 μL of […] hIDO2 and 1.5 μL of 26.7 mM L-Trp were added and the microplate was incubated for 60 min at 37 °C. The reaction was quenched with the addition of 10 μL of 400 mM piperidine solution in MilliQ water and the formation of the examined fluorophore began following incubation at 65 °C for 20 min. The production of NFK-derived fluorophore (λEX = 400 nm, λEM = 500 nm) was measured using a microplate reader (Synergy H4; BioTek Instruments, Inc., Winooski, VT, USA) after 60 min post-incubation at room temperature. In the preliminary testing compounds were tested at 100 μM with activities determined as residual activities—RA, which were calculated to% of inhibition, presented in Table 1 and Table 2. (% of inhibition = 100% − RA). All determinations were carried out in duplicates.

hTDO = target: T2, hTDO (Homo sapiens, UniProt P48775); assay: hTDO inhibitory potency evaluation (fluorescence assay); assay type: biochemical; conditions: for inhibition at 100 µM: 100 µM compound, n.a. = not active, read-out: TDO % of Inhibition @ 100 µM
T2 construct: purchased Vinci-Biochem
T2 sequence (P48775 whole entry): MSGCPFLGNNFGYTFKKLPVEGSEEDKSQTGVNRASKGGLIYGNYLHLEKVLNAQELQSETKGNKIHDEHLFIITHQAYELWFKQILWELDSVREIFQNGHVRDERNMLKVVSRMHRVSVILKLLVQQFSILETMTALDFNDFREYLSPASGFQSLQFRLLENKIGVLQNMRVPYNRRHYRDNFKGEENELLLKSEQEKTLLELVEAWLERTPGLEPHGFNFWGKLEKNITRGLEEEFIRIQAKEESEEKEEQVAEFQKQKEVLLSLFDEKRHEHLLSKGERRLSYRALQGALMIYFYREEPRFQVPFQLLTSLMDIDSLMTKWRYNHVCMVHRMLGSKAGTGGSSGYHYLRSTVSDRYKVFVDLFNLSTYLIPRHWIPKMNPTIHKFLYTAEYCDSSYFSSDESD
Protocol: as §1
The activity of the compounds on hTDO was determined according to the previously reported fluorescence protocol for hIDO1 [25] and reported absorbance protocols for hTDO [30] with several modifications. Recombinant hTDO was purchased from Vinci-Biochem (Vinci-Biochem, Vinci, Italy), bovine catalase was purchased from Sigma-Aldrich (Sigma-Aldrich, St. Louis, MO, USA). Prior to the measurement of activity for compounds, the enzyme activity was determined, and optimal assay enzyme concentration was selected. The amounts of reagents needed to perform the assay were optimized. Briefly, the reagents needed were dissolved in 50 mM potassium phosphate buffer (pH 7.0, 0.01%, v/v Tween 20), the reaction was performed in black 384-well microplates. After the addition of 1 μL of 100 mM sodium ascorbate neutralized with equimolar amount of 1 M NaOH, 1 μL of 100 μM methylene blue, 1 μL of 1 mg/mL bovine catalase, 0.5 μL of DMSO (negative control) or solution of a compound, 5 μL of 300 nM hTDO and 1.5 μL of 3.3 mM L-Trp were added and the microplate was incubated for 60 min at 37 °C. The reaction was quenched with the addition of 10 μL of 400 mM piperidine solution in MilliQ water and the formation of the examined fluorophore began following incubation at 65 °C for 20 min. The production of NFK-derived fluorophore (λEX = 400 nm, λEM = 500 nm) was measured using a microplate reader (Synergy H4; BioTek Instruments, Inc., Winooski, VT, USA) after 60 min post-incubation at room temperature. In the preliminary testing compounds were tested at 100 μM with activities determined as residual activities—RA, which were calculated to% of inhibition, presented in Table 1 and Table 2 (% of inhibition = 100% − RA). All determinations were carried out in duplicates.

Structure (SMILES): O=C(Cn1cnc2onc(-c3ccc(F)cc3)c2c1=O)N1CCCc2ccccc21 [Compound 12]
- IC50 (IDO1): 50 µM

Structure (SMILES): CN(C)C(=O)Cn1cnc2onc(-c3ccc(F)cc3)c2c1=O [Compound 13]
- melting point: 215 to 217 °C
- inhibition at 100 µM (IDO1): 21 ± 5%

Structure (SMILES): O=C(Cn1cnc2onc(-c3ccc(F)cc3)c2c1=O)N1CCCCC1 [Compound 14]
- melting point: 174 to 176 °C
- inhibition at 100 µM (IDO1): 27 ± 4%

Structure (SMILES): O=C(Cn1cnc2onc(-c3ccc(F)cc3)c2c1=O)NC12CC3CC(CC(C3)C1)C2 [Compound 15]
- melting point: 204 to 205 °C
- IC50 (IDO1): 88 µM

Structure (SMILES): O=C(Cn1cnc2onc(-c3ccc(F)cc3)c2c1=O)Nc1ccccc1 [Compound 16]
- melting point: 203 to 205 °C
- hIDO1 inhibition (in words) (IDO1): only weak inhibition
- inhibition at 100 µM (IDO1): 15 ± 4%
- inhibition at 100 µM (hIDO2): 28 ± 9%

Structure (SMILES): O=C(Cn1cnc2onc(-c3ccc(F)cc3)c2c1=O)Nc1ccc(F)cc1 [Compound 17]
- melting point: 206 to 209 °C
- hIDO1 inhibition (in words) (IDO1): only weak inhibition
- inhibition at 100 µM (IDO1): 33 ± 2%

Structure (SMILES): COC(=O)c1ccccc1NC(=O)Cn1cnc2onc(-c3ccc(F)cc3)c2c1=O [Compound 18]
- melting point: 212 to 214 °C
- inhibition at 100 µM (IDO1): 32 ± 4%
- inhibition at 100 µM (hIDO2): 15 ± 1%

Structure (SMILES): COC(=O)c1cccc(NC(=O)Cn2cnc3onc(-c4ccc(F)cc4)c3c2=O)c1 [Compound 19]
- IC50 (IDO1): 55 µM

Structure (SMILES): COC(=O)c1ccc(NC(=O)Cn2cnc3onc(-c4ccc(F)cc4)c3c2=O)cc1 [Compound 20]
- melting point: 234 to 236 °C
- hIDO1 inhibition (in words) (IDO1): low micromolar range
- IC50 (IDO1): 27 µM

Structure (SMILES): COC(=O)c1ccc(CNC(=O)Cn2cnc3onc(-c4ccc(F)cc4)c3c2=O)cc1 [Compound 21]
- melting point: 165 to 167 °C
- inhibition at 100 µM (IDO1): 27 ± 3%

Structure (SMILES): O=C(Cn1cnc2onc(-c3ccc(F)cc3)c2c1=O)Nc1cccc(C(F)(F)F)c1 [Compound 22]
- melting point: 195 to 200 °C
- IC50 (IDO1): 55 µM

Structure (SMILES): CS(=O)(=O)c1ccc(NC(=O)Cn2cnc3onc(-c4ccc(F)cc4)c3c2=O)cc1 [Compound 26]
- melting point: 234 to 238 °C
- hIDO1 inhibition (in words) (IDO1): inactive
- inhibition at 100 µM (IDO1): 11 ± 2%

Structure (SMILES): N#Cc1ccc(NC(=O)Cn2cnc3onc(-c4ccc(F)cc4)c3c2=O)cc1 [Compound 27]
- melting point: > 250 °C
- inhibition at 100 µM (hTDO): 17 ± 2%
- hIDO1 inhibition (in words) (IDO1): inactive
- inhibition at 100 µM (IDO1): 11 ± 4%

Structure (SMILES): CN(C)c1ccc(NC(=O)Cn2cnc3onc(-c4ccc(F)cc4)c3c2=O)cc1 [Compound 28]
- inhibition at 100 µM (hTDO): 18 ± 4%
- hIDO1 inhibition (in words) (IDO1): weak inhibition
- inhibition at 100 µM (IDO1): 31 ± 3%

Structure (SMILES): O=C(Cn1cnc2onc(-c3ccc(F)cc3)c2c1=O)Nc1ccc(-c2ncco2)cc1 [Compound 29]
- melting point: 237 to 239 °C
- inhibition at 100 µM (hTDO): 29 ± 3%
- IC50 (IDO1): 30 µM

Structure (SMILES): O=C(Cn1cnc2onc(-c3ccc(F)cc3)c2c1=O)Nc1ccc(-c2nn[nH]n2)cc1 [Compound 30]
- inhibition at 100 µM (hTDO): 17 ± 2%
- hIDO1 inhibition (in words) (IDO1): inactive

Structure (SMILES): CC(C)c1ccc(NC(=O)Cn2cnc3onc(-c4ccc(F)cc4)c3c2=O)cc1 [Compound 31]
- melting point: 198 to 202 °C
- IC50 (IDO1): 87 µM

Structure (SMILES): O=C(Cn1cnc2onc(-c3ccc(F)cc3)c2c1=O)Nc1ccc(C2CCCCC2)cc1 [Compound 32]
- hIDO1 inhibition (in words) (IDO1): low micromolar range
- IC50 (IDO1): 22 µM

Structure (SMILES): COc1cc(NC(=O)Cn2cnc3onc(-c4ccc(F)cc4)c3c2=O)cc(OC)c1OC [Compound 34]
- melting point: 219 to 221 °C
- hIDO1 inhibition (in words) (IDO1): inactive

Structure (SMILES): O=C(Cn1cnc2onc(-c3ccc(F)cc3)c2c1=O)Nc1cccc2ccccc12 [Compound 35]
- melting point: 210 to 215 °C
- inhibition at 100 µM (IDO1): 20 ± 6%

Structure (SMILES): O=C(Cn1cnc2onc(-c3ccc(F)cc3)c2c1=O)Nc1ccc2ccccc2c1 [Compound 36]
- melting point: 180 to 184 °C
- IC50 (IDO1): 46 µM
- inhibition at 100 µM (hIDO2): 13 ± 2%

Structure (SMILES): O=C(Cn1cnc2onc(-c3ccc(F)cc3)c2c1=O)N1CCc2ccccc2C1 [Compound 37]
- melting point: 201 to 203 °C
- inhibition at 100 µM (IDO1): 17 ± 5%

Structure (SMILES): O=C(Cn1cnc2onc(-c3ccccc3)c2c1=O)N1CCCc2ccccc21 [Compound 38]
- inhibition at 100 µM (hIDO2): 16 ± 4%

Structure (SMILES): O=C(Cn1cnc2onc(-c3ccccc3)c2c1=O)Nc1ccc([N+](=O)[O-])cc1 [Compound 40]
- melting point: 197 to 199 °C
- inhibition at 100 µM (hIDO2): 16 ± 5%

Structure (SMILES): O=C(Cn1cnc2onc(-c3ccc(Br)cc3)c2c1=O)N1CCCc2ccccc21 [Compound 41]
- inhibition at 100 µM (IDO1): 32 ± 1%

Structure (SMILES): COc1ccc(-c2noc3ncn(CC(=O)N4CCCc5ccccc54)c(=O)c23)cc1 [Compound 42]
- melting point: 171 to 178 °C
- inhibition at 100 µM (IDO1): 15 ± 4%

Structure (SMILES): O=C(Cn1cnc2onc(-c3ccc(OCc4ccccc4)cc3)c2c1=O)N1CCCc2ccccc21 [Compound 46]
- melting point: 200 to 202 °C
- inhibition at 100 µM (IDO1): 14 ± 3%

Structure (SMILES): O=C(Cn1cnc2onc(-c3ccc(F)c(F)c3)c2c1=O)N1CCCc2ccccc21 [Compound 47]
- inhibition at 100 µM (IDO1): 34 ± 1%

Structure (SMILES): O=C(Cn1cnc2onc(-c3ccc(F)c(F)c3)c2c1=O)Nc1ccc([N+](=O)[O-])cc1 [Compound 48]
- inhibition at 100 µM (hTDO): 10 ± 6%
- IC50 (IDO1): 75 µM

Structure (SMILES): O=C(Cn1cnc2onc(-c3cccs3)c2c1=O)N1CCCc2ccccc21 [Compound 50]
- melting point: 202 to 205 °C

Structure (SMILES): O=C(Cn1cnc2onc(-c3cccs3)c2c1=O)Nc1ccc([N+](=O)[O-])cc1 [Compound 51]
- IC50 (IDO1): 53 µM

Structure (SMILES): O=C(Cn1cnc2onc(-c3ccsc3)c2c1=O)N1CCCc2ccccc21 [Compound 52]
- inhibition at 100 µM (IDO1): 23 ± 5%

Structure (SMILES): O=C(Cn1cnc2onc(-c3ccsc3)c2c1=O)Nc1ccc([N+](=O)[O-])cc1 [Compound 53]
- melting point: 231 to 233 °C
- IC50 (IDO1): 40 µM
- inhibition at 100 µM (hIDO2): 21 ± 6%

Structure (SMILES): NS(=O)(=O)NCCNc1nonc1C(=NO)Nc1ccc(F)c(Br)c1 [epacadostat, reference compound]
- IC50 (hTDO): 9.62 µM
- IC50 (hIDO2; positive control, assay validation, read-out: IDO2 IC50): 0.58 µM
